Where two headings read alike, the source gives them in different places. Where only a bound is given, the exact number is not on record here.

The nature of series [1]: logP by HPLC on reversed-phase columns (C 18), method [a], acidic range pH 2.3. The series is classed as physicochemical. The conditions noted are these: pH 2.3, logP (pH2.3). The protocol:
(§1) The logP values were determined in accordance with EEC Directive 79/831 Annex V.A8 by HPLC (High Performance Liquid Chromatography) on reversed-phase columns (C 18), using the methods below:
[a] The determination is carried out in the acidic range at pH 2.3 using the mobile phases 0.1% aqueous phosphoric acid and acetonitrile, linear gradient from 10% acetonitrile to 95% acetonitrile.

The subject of series [2] is Venturia inaequalis. The series is described as follows: Venturia test (apple) / protective. The series is classed as in vivo. The note with it: 240 h, active compound concentration 100 ppm, evaluation 10 days after inoculation, read-out: efficacy. The protocol: After the spray coating has dried on, the plants are inoculated with an aqueous conidia suspension of the apple scab pathogen Venturia inaequalis and then remain for 1 day in an incubation cabinet at about 20° C. and 100% relative atmospheric humidity.

The subject of series [3] is Leptosphaeria nodorum. The series is described as follows: Leptosphaeria nodorum test (wheat) / protective. The conditions noted are these: Parastagonospora nodorum, active compound concentration 500 ppm, evaluation 7-9 days after inoculation, read-out: efficacy. The series is classed as in vivo. The method, then:
Thereafter, the plants are placed in a greenhouse at 90% relative atmospheric humidity and a temperature of 22° C.

Series [4] deals with Fusarium proliferatum. Put plainly: Production of fumonisin FB1 by Fusarium proliferatum (microtitre plates; FB1 by HPLC-MS/MS, growth by OD620). The series is classed as cell-based. The conditions noted are these: for IC50: Fusarium proliferatum, 144 h.
The nature of series [5]: logP by LC-MS on reversed-phase columns (C 18), method [b], acidic range pH 2.7. The series is classed as physicochemical. The conditions noted are these: for chromatographic logP: pH 2.7, log p. The method, then: as §1
[b] The LC-MS determination in the acidic range is carried out at pH 2.7 using the mobile phases 0.1% aqueous formic acid and acetonitrile (contains 0.1% formic acid), linear gradient from 10% acetonitrile to 95% acetonitrile.

For series [6], the system named is Alternaria solani. The series is described as follows: Alternaria test (tomato) / protective. The series is classed as in vivo. The conditions noted are these: 72 h, active compound concentration 100 ppm, evaluation 3 days after inoculation, read-out: efficacy. The protocol:
The plants are then placed in an incubation cabinet at about 20° C. and 100% relative atmospheric humidity.

Series [7] deals with Pyrenophora teres. Put plainly: Pyrenophora teres test (barley) / protective. The conditions noted are these: 192 h, active compound concentration 500 ppm, evaluation 8 days after inoculation, read-out: efficacy. The series is classed as in vivo. The protocol:
After the spray coating has dried on, the plants are sprayed with a spore suspension of Pyrenophora teres. The plants remain in an incubation cabinet for 48 hours at 20° C. and 100% relative atmospheric humidity.

In series [8] the test system is Sphaerotheca fuliginea. Put plainly: Sphaerotheca test (cucumber) / protective. It is filed as in vivo. The conditions noted are these: Podosphaera fuliginea, 168 h, active compound concentration 500 ppm, evaluation 7 days after inoculation, read-out: efficacy. The protocol: The plants are subsequently placed in a greenhouse at 70% relative atmospheric humidity and a temperature of 23° C.

Series [9] has as its system Pyricularia oryzae. Put plainly: whole plant or invertebrate. The series is classed as in vivo. The note with it: 120 h, read-out: efficacy.
Series [10] relates to Rhizoctonia solani. The series is described as follows: Rhizoctonia test (rice) / protective. The series is classed as in vivo. The conditions noted are these: 96 h, active compound concentration 250 ppm, evaluation 4 days after inoculation, read-out: efficacy.
For series [11], the system named is Cochliobolus miyabeanus. The series is described as follows: Cochliobolus test (rice) / protective. The conditions noted are these: Bipolaris oryzae, in Oryza sativa, 96 h, read-out: efficacy.
Method: Cochliobolus Test (Rice)/Protective • Solvent: 28.5 parts by weight of acetone • Emulsifier: 1.5 parts by weight of alkylaryl polyglycol ether
1 day after the treatment, the plants are inoculated with an aqueous spore suspension of Cochliobolus miyabeanus. The plants are then placed in a greenhouse at 100% relative atmospheric humidity and 25° C.
Evaluation is carried out 4 days after the inoculation.
A short description of series [12]: logP by LC-MS on reversed-phase columns (C 18), method [c], neutral range pH 7.8. The series is classed as physicochemical. The note with it: pH 7.8. The protocol:
as §1
[c] The LC-MS determination in the neutral range is carried out at pH 7.8 using the mobile phases 0.001 molar aqueous ammonium bicarbonate solution and acetonitrile, linear gradient from 10% acetonitrile to 95% acetonitrile.

The mark [13] stands for this setting: growth, OD620 at the beginning and after 6 days, read-out: pI50 growth (converted).

On to `COCC(C)Oc1ccc(Nc2ncc(Br)c(NC3CC3)n2)cc1` (stereo not drawn) [Example 1, 5-Bromo-N^4-cyclopropyl-N^2-{4-[(1-methoxypropan-2-yl)oxy]phenyl}pyrimidine-2,4-diamine], for which the chromatographic logP in series [1] and in [5] was 1.83 in each case. In addition, the pest or weed control at 100 ppm in series [2] is at least 70%. Besides, in [3], the pest or weed control at 500 ppm is at least 70%. The IC50 in series [4] (read-out: pI50 Fum) is 1.26 µM; in [4] (setting [13]) it was 6.31 µM.

As to `CCSC(C)c1cccc(Nc2ncc(Br)c(NC3CCC3)n2)c1` (stereo not drawn) [Example 12], the pest or weed control at 100 ppm in series [2] and in series [6] was at least 70% throughout. The pest or weed control at 500 ppm in [3] and in [7] was at least 70% in each case. Besides, the IC50 is 10 µM in series [4] (read-out: pI50 Fum) and over 50.1 µM in series [4] (setting [13]). In series [5], the chromatographic logP came out at 3.49.

Regarding `COC(C)c1cccc(Nc2ncc(Cl)c(NC3CCC3)n2)c1` (stereo not drawn) [Example 15], the pest or weed control at 100 ppm in series [2] and in series [6] was at least 70% in each case. Moreover, the pest or weed control at 500 ppm in series [8], in series [3] and in series [7] was at least 70% in each case. Further, the pest or weed control at 250 ppm in series [9], in series [10] and in series [11] was at least 80% in each case. In series [5], this compound gave a chromatographic logP of 2.27.

On to `COC(C)c1cccc(Nc2ncc(Br)c(NC3CCC3)n2)c1` (stereo not drawn) [Example 20], for which the pest or weed control at 100 ppm in series [2] and in series [6] was at least 70% throughout. The pest or weed control at 500 ppm in [3] and in series [7] was at least 70% each time. Moreover, the pest or weed control at 250 ppm in [9], in series [10] and in series [11] was at least 80% each time. In addition, the IC50 was 0.794 µM in series [4] (read-out: pI50 Fum) and 3.98 µM in [4] (setting [13]). In [5], this compound displayed a chromatographic logP of 2.46.

With `COCc1cccc(Nc2ncc(C(F)(F)F)c(NC3CCC3)n2)c1` [Example 24], the pest or weed control at 500 ppm in [3] and in series [7] was at least 70% each time. Moreover, the pest or weed control at 250 ppm in series [9] and in series [10] was at least 80% throughout. Also, the figures for the IC50 in series [4] (read-out: pI50 Fum) and in [4] (setting [13]) were 2 µM and 7.94 µM, respectively. In [5], this compound came in with a chromatographic logP of 3.3.

As for `CCS(=O)(=O)c1cccc(Nc2ncc(Cl)c(NC3CCC3)n2)c1` [Example 27, 5-chloro-N^4-cyclobutyl-N^2-[3-(ethylsulphonyl)phenyl]pyrimidine-2,4-diamine], the chromatographic logP in series [1] and in series [5] was 2.21 throughout. The pest or weed control at 100 ppm in series [2] and in series [6] was at least 70% each time. Further, the pest or weed control at 500 ppm in [8] and in [3] was at least 70% throughout. Further, the pest or weed control at 250 ppm in [9] and in series [11] was at least 80% in each case. Besides, the IC50 is 2 µM in series [4] (read-out: pI50 Fum) and 20 µM in series [4] (setting [13]).

`CC[S+]([O-])C(C)c1cccc(Nc2ncc(C(F)(F)F)c(NC3CC3)n2)c1` (stereo not drawn) [Example 45]: the “pI50 Fum” value in series [4] (fumonisin FB1 production, 6 days at 20° C., HPLC-MS/MS) was determined as 5.0. In addition, the pI50 growth in series [4] (growth, OD620 at the beginning and after 6 days) is reported as 4.7. Besides, the log p in series [5] (pH 2.7) is 2.2[b].

For `CCCSc1cccc(Nc2ncc(Br)c(NC3CCC3)n2)c1` [Example 57], the pest or weed control at 100 ppm in [2] and in series [6] was at least 70% in each case. In addition, the pest or weed control at 500 ppm in series [8], in [3] and in series [7] was at least 70% each time. Moreover, the pest or weed control at 250 ppm in series [9], in series [10] and in [11] was at least 80% throughout. In series [5], this compound registered a chromatographic logP of 3.96.

Take `CCC(SC)c1cccc(Nc2ncc(C(F)(F)F)c(NC3CC3)n2)c1` (stereo not drawn) [Example 62]: the pest or weed control at 100 ppm in series [2] and in [6] was at least 70% throughout. Besides, the pest or weed control at 500 ppm in [8] and in series [3] was at least 70% throughout. The pest or weed control at 250 ppm in [9], in [10] and in [11] was at least 80% in each case. The IC50 in series [4] (read-out: pI50 Fum) is 15.8 µM; in [4] (setting [13]), over 50.1 µM. Also, the chromatographic logP in series [5] was determined as 4.23.

Regarding `COC(C)(C)Cc1cccc(Nc2ncc(Cl)c(NC3CC3)n2)c1` [Example 64], the pest or weed control at 100 ppm in [2] and in series [6] was at least 70% each time. Moreover, the pest or weed control at 500 ppm in series [3] and in series [7] was at least 70% in each case. In addition, the pest or weed control at 250 ppm in series [9] was at least 80%. The values for the IC50 in series [4] (read-out: pI50 Fum) and in [4] (setting [13]) were 0.631 µM and 5.01 µM, respectively. The chromatographic logP is 2.21 in series [5] and 3.81 in series [12].

Consider `CC[S+]([O-])C(C)c1cccc(Nc2ncc(Cl)c(NC3CCC3)n2)c1` (stereo not drawn) [Example 76], for which the pest or weed control at 100 ppm in series [2] and in series [6] was at least 70% each time. Further, the pest or weed control at 500 ppm in series [8], in series [3] and in series [7] was at least 70% in each case. For the same compound, the pest or weed control at 250 ppm in series [9], in series [10] and in [11] was at least 80% in each case. For the same compound, the chromatographic logP in [5] is 1.68; in [12], 2.53.

Regarding `CCS(=O)(=O)C(C)c1cccc(Nc2ncc(Cl)c(NC3CCC3)n2)c1` (stereo not drawn) [Example 77], the pest or weed control at 100 ppm in series [2] and in series [6] was at least 70% each time. Besides, the pest or weed control at 500 ppm in series [8], in series [3] and in series [7] was at least 70% each time. The pest or weed control at 250 ppm in [9], in series [10] and in [11] was at least 80% each time. The chromatographic logP was 1.9 in series [5] and 2.98 in [12].

Take `COC(C)c1cccc(Nc2ncc(Cl)c(NCC(F)(F)F)n2)c1` (stereo not drawn) [Example 83]: the pest or weed control at 100 ppm in series [2] and in series [6] was at least 70% throughout. In addition, the pest or weed control at 500 ppm in [8] and in series [3] was at least 70% throughout. Moreover, the pest or weed control at 250 ppm in series [9], in series [10] and in series [11] was at least 80% throughout. Further, the chromatographic logP in series [5] was 2.82; in [12] it was 3.18.

With `CCCCSc1cccc(Nc2ncc(Cl)c(NC3CCC3)n2)c1` [Example 106], the pest or weed control at 100 ppm in [2] and in [6] was at least 70% throughout. Further, the pest or weed control at 500 ppm in series [3] is at least 70%. For the same compound, the pest or weed control at 250 ppm in [9], in [10] and in [11] was at least 80% throughout. The chromatographic logP was found to be 4.28 in series [5] and 5.13 in series [12].

Consider `CCCCS(=O)(=O)c1cccc(Nc2ncc(C(F)(F)F)c(NC3CC3)n2)c1` [Example 121], for which the pest or weed control at 100 ppm in series [2] and in [6] was at least 70% in each case. Besides, the pest or weed control at 500 ppm in series [8] and in series [3] was at least 70% in each case. For the same compound, the pest or weed control at 250 ppm in series [9], in series [10] and in series [11] was at least 80% each time. For the same compound, the chromatographic logP worked out at 3.4 in series [5] and 3.46 in [12].

Turning to `COC(C)c1cccc(Nc2ncc(Cl)c(NC(C)C)n2)c1` (stereo not drawn) [Example 129], the pest or weed control at 100 ppm in series [2] and in [6] was at least 70% each time. In addition, the pest or weed control at 500 ppm in [8] and in series [3] was at least 70% each time. Further, the pest or weed control at 250 ppm in [9], in series [10] and in series [11] was at least 80% each time. Also, the chromatographic logP in series [5] was 2.02; in [12], 3.67.

Values taken from patent publication US20110245284A1, “Alkoxy- and Alkylthio-Substituted Anilinopyrimidines” (Bayer CropScience AG, priority 2008, published 2011).
